Key:
[1] = target: T1, human leukocyte elastase (HLE) (Homo sapiens, UniProt P08246); experiment: Dry phase test strip assay of chromogenic substrates for HLE (reflectance at 557 nm, K/S); format: biochemical; details: for K/S: response at 120 seconds; for Change in K/S: 120 seconds; for Response to HLE / hydrolysis by HLE, in words: test strip, NDNSA
T1 sequence (P08246 30-247): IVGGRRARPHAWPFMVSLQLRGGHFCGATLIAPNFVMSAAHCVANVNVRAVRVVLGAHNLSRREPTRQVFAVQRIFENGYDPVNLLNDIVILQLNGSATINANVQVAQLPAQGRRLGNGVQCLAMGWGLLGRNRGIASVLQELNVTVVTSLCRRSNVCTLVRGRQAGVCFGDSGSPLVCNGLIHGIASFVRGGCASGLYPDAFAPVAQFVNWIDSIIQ
Protocol: In accordance with the method of the present invention, a test device was prepared which was sensitive to the presence of leukocyte esterase. An aqueous solution including 0.8M borate-sodium hydroxide buffer (pH 8.8) and 1% by weight of polyvinylpyrrolidone (PVP K-60 available from ISP Corp., Wayne, N.J.) first was prepared. A 4 inch wide strip of WHATMAN 3MM filter paper, available commercially from Whatman, Ltd., Maidenhead, Kent, U.K., then was impregnated with the aqueous solution. The impregnated filter paper strip next was dried in an Air Foil paper dryer, available from Thermoelectron, Kaukauna, Wis., at 79° C. to 121° C. for about 5 to 6 minutes.
The dried, impregnated filter paper strip then was impregnated a second time by immersion into an acetone solution containing 1.1 mM of a lactate ester of structural formula […], 0.7 mM 4-diazo-3-hydroxy-7-nitro-1-naphthylsulfonate (i.e., the compound of structural formula (XX), also named 6-nitro-1,2-naphthoquinone diazide), 1.5% (v/v) 1-decanol and 3% (v/v) dimethylsulfoxide. After the second impregnation, the filter paper strip was dried at 60° C. for about 5 to 6 minutes to provide an off-white filter paper strip. The dried, twice-impregnated filter paper pad is secured to an opaque or transparent hydrophobic plastic handle with double-sided adhesive tape. The dried and twice-impregnated filter paper strip was next cut to an appropriate size for a test strip assay, such as a pad having dimensions of about 0.2 in (inch) (0.5 cm) by about 0.2 in (0.5 cm).
Individual test strips each incorporating one chromogenic lactate ester having a structural formula (X) through (XIV) and a diazonium salt coupling agent were quickly immersed into standardized solutions containing 0, 19 or 48 ng/mL HLE, then removed. Approximately two minutes after contacting a standardized HLE solution, the reflectance of the test pad of the test strip was measured at 557 nm (nanometers) on a CLINITEK® 10 clinical reflectance meter, available from Miles, Inc., Elkhart, Ind.
The reflectance, R, as taken from the reflectance scale of zero to one, was incorporated into the Kubelka-Munk function:
wherein K is the absorption coefficient, S is the scattering coefficient and R is reflectance. The reflectance values determined at 557 nm were used to calculate the K/S values. The K/S values are proportional to test strip color, therefore the greater the K/S value, the greater the degree and intensity of the color transition of the test strip and the greater the concentration of HLE in the test strip.
Dry phase test strips incorporating the lactate ester of structural formula (X), and prepared as discussed above, were compared to dry phase test strips incorporating the corresponding alanine derivative (I) for an ability to detect HLE in urine. A comparison also was made between the diazonium salt coupling agents DNSA (XX) and NDNSA (XXI). The test strips were otherwise identical. The results tabulated below were obtained after quickly immersing the individual reagent strips into standardized HLE solutions. Two minutes after immersion, the test strips were examined for a chromogenic response as described above.

[2] = target: T1, human leukocyte elastase (HLE); experiment: as above; format: biochemical; details: for K/S: response at 120 seconds; for Change in K/S: between 0 and 19 ng/mL HLE; for Change in K/S / Response between 200 and 500 ng/mL HLE, in words: 120 seconds; for ΔK/S (557 mm) at 120 seconds: NDNSA (XXI); for Response between 200 and 500 ng/mL HLE, in words: test strip, NDNSA
[3] = HLE 0 ng/mL, diazonium salt NDNSA, 557 nm
[4] = HLE 19 ng/mL, diazonium salt NDNSA, 557 nm
[5] = between 0 and 19 ng/mL HLE, diazonium salt NDNSA
[6] = Example 10, HLE 0 ng/mL, diazonium salt not given (as in Example 6)
[7] = Example 10, HLE 19 ng/mL, diazonium salt not given (as in Example 6)
[8] = Example 10, diazonium salt not stated
[9] = HLE 48 ng/mL, diazonium salt NDNSA, 557 nm
[10] = between 0 and 48 ng/mL HLE, diazonium salt NDNSA
[11] = change between 0 and 5 ng/mL HLE
[12] = change between 0 and 10 ng/mL HLE
[13] = change between 0 and 20 ng/mL HLE
[14] = change between 0 and 100 ng/mL HLE
[15] = change between 0 and 200 ng/mL HLE
[16] = change between 0 and 500 ng/mL HLE

Row | K/S [1, 3] | K/S [1, 4] | Change in K/S [1, 5] | K/S [1, 9] | Change in K/S [1, 10] | SMILES | further results
1 | 0.044 | 0.308 | 0.264 | – | – | Cc1ccc(S(=O)(=O)N[C@@H](C)C(=O)Oc2c[nH]c(-c3ccccc3)c2)cc1 [Tosyl--Ala--OPP, 3-hydroxy-5-phenyl-pyrrole-N-tosyl-L-alanine ester] | K/S ([2]; HLE 0 ng/mL, diazonium salt DNSA, 557 nm): 0.021; K/S ([2]; HLE 19 ng/mL, diazonium salt DNSA, 557 nm): 0.146; Change in K/S ([2]; diazonium salt DNSA): 0.125
2 | 0.038 | 0.039 | 0.001 | – | – | C[C@H](NC(=O)c1ccccc1)C(=O)Oc1c[nH]c(-c2ccccc2)c1 [Ph--CO--R--OPP, R = Alanine] | –
3 | – | – | – | – | – | C[C@H](NS(=O)(=O)c1cccs1)C(=O)Oc1c[nH]c(-c2ccccc2)c1 [2-Thiophene-SO2 --R--OPP, R = Alanine] | K/S [1, 6]: 0.050; K/S [2, 7]: 0.224; Change in K/S [2, 8]: 0.174
4 | – | – | – | – | – | C[C@H](OS(=O)(=O)c1cccs1)C(=O)Oc1c[nH]c(-c2ccccc2)c1 [2-Thiophene-SO2-(L)-Lac-OPP] | K/S [1, 6]: 0.03; K/S [2, 7]: 0.385; Change in K/S [2, 8]: 0.332
5 | 0.177 | 0.514 | 0.337 | 0.916 | 0.739 | COC(=O)CCS(=O)(=O)O[C@@H](C)C(=O)Oc1c[nH]c(-c2ccccc2)c1 [MeOSucc--SO2 -(L)-Lac--OPP] | Response to HLE / hydrolysis by HLE, in words [1]: sufficient to assay for HLE
6 | 0.100 | 0.498 | 0.398 | 1.049 | 0.949 | CCCS(=O)(=O)O[C@@H](C)C(=O)Oc1c[nH]c(-c2ccccc2)c1 [n-Pr--SO2 --Lac--OPP, nPr--SO2 -(L)-Lac--OPP] | ΔK/S (557 mm) at 120 seconds [2, 11]: 0.108; ΔK/S (557 mm) at 120 seconds [2, 12]: 0.257; ΔK/S (557 mm) at 120 seconds [2, 13]: 0.533; ΔK/S (557 mm) at 120 seconds [2, 14]: 1.462; ΔK/S (557 mm) at 120 seconds [2, 15]: 1.693; ΔK/S (557 mm) at 120 seconds [2, 16]: 1.915; Response between 200 and 500 ng/mL HLE, in words [2]: continues to increase
7 | 0.046 | 0.348 | 0.302 | – | – | Cc1ccc(S(=O)(=O)O[C@@H](C)C(=O)Oc2c[nH]c(-c3ccccc3)c2)cc1 [Tosyl-(L)--Lac--OPP, 3-(O-tosyl-(L)-lactoyl)-5-phenylpyrrole] | Response to HLE / hydrolysis by HLE, in words [1]: readily hydrolyzed by the enzyme HLE
8 | 0.074 | 0.435 | 0.361 | 0.976 | 0.902 | COC(=O)CCS(=O)(=O)N[C@@H](C)C(=O)Oc1c[nH]c(-c2ccccc2)c1 | –
9 | 0.050 | 0.363 | 0.313 | 0.881 | 0.831 | CCCS(=O)(=O)N[C@@H](C)C(=O)Oc1c[nH]c(-c2ccccc2)c1 [n-Pr--SO2 --Ala--OPP] | ΔK/S (557 mm) at 120 seconds [2, 11]: 0.065; ΔK/S (557 mm) at 120 seconds [2, 12]: 0.165; ΔK/S (557 mm) at 120 seconds [2, 13]: 0.353; ΔK/S (557 mm) at 120 seconds [2, 14]: 1.474; ΔK/S (557 mm) at 120 seconds [2, 15]: 1.797; ΔK/S (557 mm) at 120 seconds [2, 16]: 1.628; Response between 200 and 500 ng/mL HLE, in words [2]: no difference in response
10 | 0.041 | 0.106 | 0.065 | – | – | C[C@H](OC(=O)c1ccccc1)C(=O)Oc1c[nH]c(-c2ccccc2)c1 [Ph--CO--R--OPP, R = Lactate (XI), PhCO-(L)-Lac--OPP] | –
